Source: ChEMBL document CHEMBL1134687, “Synthesis and structure-activity relationships of naphthamides as dopamine D3 receptor ligands” (J Med Chem, 2001)
pKi: −log10 of the molar value.

How the values were obtained:
D(2) dopamine receptor = D(2) dopamine receptor (Rattus norvegicus, UniProt P61169); test: Binding affinity for dopamine receptor D2 long expressed in Sf9 cells using [125I]IABN radioligand.
Sigma 2 receptor [1] = biological target: Sigma 2 receptor; design: species or system Rattus norvegicus, Liver, Membrane
D(3) dopamine receptor = D(3) dopamine receptor (Rattus norvegicus, UniProt P19020); test: biochemical
Description: Binding affinity for dopamine receptor D3 expressed in Sf9 cells using [125I]IABN the radioligand.

Sigma 2 receptor [2] = test: Binding affinity for sigma-2 receptor measured on rat liver membranes using [3H]DTG as radioligand in the presence of (+)-pentazocine; design: species or system Membrane

D(2) dopamine receptor, sequence (P61169 whole entry): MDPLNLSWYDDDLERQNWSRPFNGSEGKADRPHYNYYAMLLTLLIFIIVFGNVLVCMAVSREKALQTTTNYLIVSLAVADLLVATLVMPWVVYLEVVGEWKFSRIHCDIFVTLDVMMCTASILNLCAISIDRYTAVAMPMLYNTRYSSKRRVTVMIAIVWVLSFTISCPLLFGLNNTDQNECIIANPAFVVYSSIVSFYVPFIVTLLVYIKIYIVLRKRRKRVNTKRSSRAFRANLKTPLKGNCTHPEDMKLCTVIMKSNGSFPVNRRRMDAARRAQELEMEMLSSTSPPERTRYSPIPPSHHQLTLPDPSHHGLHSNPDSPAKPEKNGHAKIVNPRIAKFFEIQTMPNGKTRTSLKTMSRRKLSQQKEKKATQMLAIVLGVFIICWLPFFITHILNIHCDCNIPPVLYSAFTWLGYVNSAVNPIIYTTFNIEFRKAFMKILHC
D(3) dopamine receptor, sequence (P19020 whole entry): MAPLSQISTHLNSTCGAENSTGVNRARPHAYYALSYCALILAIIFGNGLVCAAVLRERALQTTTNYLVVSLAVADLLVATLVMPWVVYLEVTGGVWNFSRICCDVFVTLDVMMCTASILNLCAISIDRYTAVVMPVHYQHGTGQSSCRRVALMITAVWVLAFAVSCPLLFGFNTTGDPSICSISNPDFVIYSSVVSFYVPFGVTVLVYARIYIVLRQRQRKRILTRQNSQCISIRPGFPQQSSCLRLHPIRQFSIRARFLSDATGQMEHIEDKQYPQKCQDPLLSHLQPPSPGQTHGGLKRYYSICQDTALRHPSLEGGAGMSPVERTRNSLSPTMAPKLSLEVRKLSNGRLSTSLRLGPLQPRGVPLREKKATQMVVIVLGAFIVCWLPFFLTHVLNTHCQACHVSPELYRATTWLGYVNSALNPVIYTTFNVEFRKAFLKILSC

Structure (SMILES) | pKi (D(2) dopamine receptor) | pKi (Sigma 2 receptor [1]) | pKi (D(3) dopamine receptor) | pKi (Sigma 2 receptor [2])
COc1c(C(=O)NC[C@@H]2CCCN2Cc2ccccc2)cc(Br)c2ccccc12 | 6.82 | 6.65 | 7.84 | –
COc1c(C(=O)N[C@@H]2CCN(Cc3ccccc3)C2)cc(Br)c2ccccc12 | 7.92 | 7.68 | 8.80 | –
COc1c(C(=O)N[C@H]2CCN(C3CCCCCC3)C2)cc(Br)c2ccccc12 | 8.74 | – | 9.70 | –
COc1c(C(=O)NC[C@@H]2CCCN2C2CCCCC2)cc(Br)c2ccccc12 | 6.35 | 6.83 | 6.48 | –
COc1c(C(=O)NC2CC3CCCC(C2)N3Cc2ccccc2)cc(Br)c2ccccc12 (stereo not drawn) | 9.70 | 6.60 | 10.40 | –
COc1c(C(=O)NC2CCN(C3[C@H]4C[C@@H]5C[C@@H](C[C@H]3C5)C4)CC2)cc(Br)c2ccccc12 (stereo partly drawn) | 7.02 | 7.26 | 7.04 | –
COc1c(C(=O)NC[C@@H]2CCCN2C2[C@H]3C[C@@H]4C[C@@H](C[C@H]2C4)C3)cc(Br)c2ccccc12 (stereo partly drawn) | – | 6.85 | 7.17 | –
COc1c(C(=O)N[C@H]2CCN(C3[C@H]4C[C@@H]5C[C@@H](C[C@H]3C5)C4)C2)cc(Br)c2ccccc12 (stereo partly drawn) | – | 7.15 | 9.40 | –
COc1c(C(=O)NC[C@H]2CCCN2Cc2ccccc2)cc(Br)c2ccccc12 | 7.94 | 6.68 | 8.85 | –
COc1c(C(=O)NC[C@H]2CCCN2C2CCCCC2)cc(Br)c2ccccc12 | 7.24 | 7.60 | 8.49 | –
COc1cc(I)cc(C(=O)NC2CC3CCCC(C2)N3Cc2ccccc2)c1OC (stereo not drawn) | 10.30 | 6.38 | 10.40 | –
COc1c(C(=O)NC[C@H]2CCCN2C2[C@H]3C[C@@H]4C[C@@H](C[C@H]2C4)C3)cc(Br)c2ccccc12 (stereo partly drawn) | – | 6.50 | 8.59 | –
COc1c(C(=O)N[C@@H]2CCN(C3CCCCCC3)C2)cc(Br)c2ccccc12 | 7.72 | 8.00 | 8.54 | –
COc1c(C(=O)N[C@H]2CCN(C3C4CCCC3CCC4)C2)cc(Br)c2ccccc12 (stereo partly drawn) | 6.88 | 6.86 | 7.92 | –
COc1c(C(=O)N[C@@H]2CCN(C3C4CCCC3CCC4)C2)cc(Br)c2ccccc12 (stereo partly drawn) | 7.12 | 6.55 | 7.88 | –
COc1c(C(=O)N[C@H]2CCN(Cc3ccccc3)C2)cc(Br)c2ccccc12 | 8.01 | 7.38 | 9.00 | –
COc1c(C(=O)NC2CCN(Cc3ccccc3)CC2)cc(Br)c2ccccc12 | – | – | 8.96 | 7.46
COc1c(C(=O)N[C@@H]2CCN(C3[C@H]4C[C@@H]5C[C@@H](C[C@H]3C5)C4)C2)cc(Br)c2ccccc12 (stereo partly drawn) | – | 7.67 | 7.89 | –

Results, then the compound that gave them:

pKi (D(2) dopamine receptor) | pKi (Sigma 2 receptor [1]) | pKi (D(3) dopamine receptor) | pKi (Sigma 2 receptor [2]) | Structure (SMILES)
7.13 | 8.01 | 8.24 | – | COc1c(C(=O)N[C@@H]2CCN(C3CCCCC3)C2)cc(Br)c2ccccc12
– | 7.60 | 9.10 | – | COc1c(C(=O)N[C@H]2CCN(C3CCCCC3)C2)cc(Br)c2ccccc12
6.68 | 8.17 | 6.05 | – | COc1c(C(=O)NC2CCN(C3CCCC3)CC2)cc(Br)c2ccccc12
6.56 | – | – | – | COc1c(C(=O)NC[C@H]2CCCN2C2CCC2)cc(Br)c2ccccc12
– | – | 8.62 | – | COc1c(C(=O)NC[C@H]2CCCN2C2CCCCCC2)cc(Br)c2ccccc12
7.23 | 7.29 | – | – | COc1c(C(=O)NC[C@@H]2CCCN2C2CCCC2)cc(Br)c2ccccc12
6.82 | 8.32 | 7.32 | – | COc1c(C(=O)NC2CC3CCCC(C2)N3C2CCCCC2)cc(Br)c2ccccc12 (stereo not drawn)
6.55 | 7.82 | 7.12 | – | COc1c(C(=O)N[C@@H]2CCN(C3CCCC3)C2)cc(Br)c2ccccc12
6.82 | 8.10 | 7.39 | – | COc1c(C(=O)NC2CC3CCCC(C2)N3C2CCCCCC2)cc(Br)c2ccccc12 (stereo not drawn)
– | – | 7.30 | – | COc1c(C(=O)NC[C@@H]2CCCN2C2CCCCCC2)cc(Br)c2ccccc12
7.64 | 8.59 | 7.24 | – | COc1c(C(=O)NC2CCN(C3CCCCCC3)CC2)cc(Br)c2ccccc12
6.80 | 7.46 | – | – | COc1c(C(=O)NC[C@H]2CCCN2C2CCCC2)cc(Br)c2ccccc12
7.72 | 7.57 | 8.60 | – | COc1c(C(=O)N[C@H]2CCN(C3CCCC3)C2)cc(Br)c2ccccc12
7.03 | 8.68 | 6.37 | – | COc1c(C(=O)NC2CCN(C3CCCCC3)CC2)cc(Br)c2ccccc12
7.59 | 6.57 | 8.12 | – | COc1c(C(=O)NC[C@@H]2CCCN2C2C3CCCC2CCC3)cc(Br)c2ccccc12 (stereo partly drawn)
6.11 | 8.62 | 5.84 | – | COc1c(C(=O)NC2CCN(C3C4CCCC3CCC4)CC2)cc(Br)c2ccccc12 (stereo not drawn)
7.93 | – | – | – | COc1c(C(=O)NC[C@@H]2CCCN2C2CCC2)cc(Br)c2ccccc12
